Source: patent publication US8148391B2 (Cephalon, Inc., priority 2006, dated 2012)
Like-named read-outs stand apart in the source and are kept apart here.

Columns and labels:
[1] = molecular target: T1, baculovirus-expressed ALK (Homo sapiens, UniProt Q9UM73); test: ALK Kinase Assay (ELISA-type, time-resolved fluorescence); type: biochemical
T1 construct: host or cells: baculovirus expression system
Method in brief: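 Wells were coated with phospholipase C-γ at 10 μg/mL in Tris-buffered saline. Adding 30 ng/ml enzyme started the reaction, which ran at 37° C for 15 minutes before Eu-N1 PT66 antibody detection. Percent inhibition versus log10 concentration gave IC50 by variable-slope fit.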

[2] = molecular target: T2, c-Met (cytoplasmic domain) (Homo sapiens, UniProt P08581); test: c-Met Kinase Assay (same methods as for ALK, with modifications); type: biochemical
T2 construct: 10 ng/mL c-Met (cytoplasmic domain, Invitrogen Corporation #PV3143); purchased Invitrogen Corporation PV3143
T2 sequence (P08581 956-1390 limits assumed): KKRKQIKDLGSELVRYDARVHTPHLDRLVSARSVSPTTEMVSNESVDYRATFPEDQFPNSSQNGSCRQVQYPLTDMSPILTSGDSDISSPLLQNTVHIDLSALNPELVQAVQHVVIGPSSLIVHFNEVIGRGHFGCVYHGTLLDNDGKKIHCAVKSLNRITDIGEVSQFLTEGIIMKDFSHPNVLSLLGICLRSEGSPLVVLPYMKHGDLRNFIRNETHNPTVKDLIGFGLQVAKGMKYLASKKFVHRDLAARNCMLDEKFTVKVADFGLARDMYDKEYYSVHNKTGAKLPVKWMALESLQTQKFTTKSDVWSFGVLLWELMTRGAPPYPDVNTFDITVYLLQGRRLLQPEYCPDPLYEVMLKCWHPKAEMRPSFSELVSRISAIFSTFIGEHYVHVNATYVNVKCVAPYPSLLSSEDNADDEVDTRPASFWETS
Method in brief: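 Steps: coat wells with PLC-γ (10 μg/mL, Tris-buffered saline); add 10 ng/mL c-Met cytoplasmic domain to initiate; incubate 15 min, 37° C; detect phosphoproduct via Eu-N1 PT66 antibody.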

[3] = ALK kinase inhibition, 1 μM ATP (Km level), read-out: ALK Activity
[4] = c-Met kinase inhibition, 1 μM ATP (Km level), read-out: cMet Activity
[5] = 1 μM ATP (Km level), 30 ng/ml ALK, 37° C., 15 minutes, read-out: ALK Activity (ALK kinase inhibition, IC50 class)
[6] = 1 μM ATP (Km level), 10 ng/mL c-Met, read-out: cMet Activity (c-Met kinase inhibition, IC50 class)
[7] = ALK kinase inhibition, 1 μM ATP, read-out: ALK Activity
[8] = c-Met kinase inhibition, 1 μM ATP, read-out: cMet Activity
[9] = 1 μM ATP (Km level), read-out: ALK Activity (ALK Kinase Inhibition, IC50)
[10] = 1 μM ATP (Km level), read-out: cMet Activity (c-Met Kinase Inhibition, IC50)

T1 sequence (Q9UM73 19-1620): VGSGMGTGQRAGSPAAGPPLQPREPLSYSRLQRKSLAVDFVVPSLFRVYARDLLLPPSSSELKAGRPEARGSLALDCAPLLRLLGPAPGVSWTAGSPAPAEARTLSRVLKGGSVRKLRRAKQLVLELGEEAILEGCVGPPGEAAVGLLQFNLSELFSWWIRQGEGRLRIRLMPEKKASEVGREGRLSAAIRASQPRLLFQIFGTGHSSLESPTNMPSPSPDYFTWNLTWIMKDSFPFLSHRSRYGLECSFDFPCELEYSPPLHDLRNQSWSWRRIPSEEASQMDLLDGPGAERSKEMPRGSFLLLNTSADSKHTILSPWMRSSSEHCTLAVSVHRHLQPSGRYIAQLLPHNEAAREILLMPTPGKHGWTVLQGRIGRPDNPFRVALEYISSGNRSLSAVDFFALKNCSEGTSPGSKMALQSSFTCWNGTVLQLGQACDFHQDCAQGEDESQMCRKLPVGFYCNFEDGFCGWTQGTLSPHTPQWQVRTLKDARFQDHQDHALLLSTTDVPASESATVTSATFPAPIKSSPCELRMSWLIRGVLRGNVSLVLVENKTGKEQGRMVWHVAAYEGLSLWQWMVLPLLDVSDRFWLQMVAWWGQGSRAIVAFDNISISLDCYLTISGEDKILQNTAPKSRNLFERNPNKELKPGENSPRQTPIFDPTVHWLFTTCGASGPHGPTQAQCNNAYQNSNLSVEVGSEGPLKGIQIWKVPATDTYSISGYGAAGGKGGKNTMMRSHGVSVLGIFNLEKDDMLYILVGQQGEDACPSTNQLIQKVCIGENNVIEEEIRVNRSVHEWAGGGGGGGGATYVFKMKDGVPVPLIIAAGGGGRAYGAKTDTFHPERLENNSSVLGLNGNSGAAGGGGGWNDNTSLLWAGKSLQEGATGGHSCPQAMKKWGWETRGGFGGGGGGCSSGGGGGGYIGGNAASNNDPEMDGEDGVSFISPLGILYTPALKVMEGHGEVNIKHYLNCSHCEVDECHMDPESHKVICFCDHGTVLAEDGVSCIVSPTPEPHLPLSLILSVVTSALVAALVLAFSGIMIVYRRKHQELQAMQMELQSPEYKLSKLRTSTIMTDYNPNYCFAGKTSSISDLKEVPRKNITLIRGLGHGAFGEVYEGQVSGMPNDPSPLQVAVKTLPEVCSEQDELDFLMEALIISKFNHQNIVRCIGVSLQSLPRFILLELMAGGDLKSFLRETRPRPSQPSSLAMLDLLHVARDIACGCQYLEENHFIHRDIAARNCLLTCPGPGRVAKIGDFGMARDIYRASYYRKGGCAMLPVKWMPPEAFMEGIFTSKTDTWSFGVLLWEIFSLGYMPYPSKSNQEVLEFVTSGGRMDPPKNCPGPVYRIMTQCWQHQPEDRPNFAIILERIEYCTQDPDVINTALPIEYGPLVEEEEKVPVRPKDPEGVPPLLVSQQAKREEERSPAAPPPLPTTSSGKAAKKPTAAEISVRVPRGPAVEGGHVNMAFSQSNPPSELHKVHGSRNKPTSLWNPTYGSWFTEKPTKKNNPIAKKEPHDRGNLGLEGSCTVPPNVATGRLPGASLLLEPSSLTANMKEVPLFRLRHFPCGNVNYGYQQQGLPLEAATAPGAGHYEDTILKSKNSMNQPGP

| IC50 [1, 5] | IC50 [2, 6] | IC50 [1, 7] | IC50 [2, 8] | Structure (SMILES) | other results |
| --- | --- | --- | --- | --- | --- |
| – | – | < 100 nM | > 10000 nM | COc1cc2c(cc1Nc1ncc(Cl)c(Nc3cccc(OCC#N)c3)n1)CCOC(=O)N2C [Example 1510, {3-[5-Chloro-2-(3-methoxy-5-methyl-6-oxo-5,6,8,9-tetrahydro-7-oxa-5-aza-benzocyclohepten-2-ylamino)-pyrimidin-4-ylamino]-phenoxy}-acetonitrile] | – |
| < 100 nM | > 10000 nM | – | – | CCN1C(=O)C(NC(=O)COC)CCc2c1ccc(Nc1ncc(Cl)c(Nc3ccccc3S(=O)(=O)N(C)C)n1)c2OC (stereo not shown) [Example 1352, N-{7-[5-Chloro-4-(2-dimethylsulfamoyl-phenylamino)-pyrimidin-2-ylamino]-1-ethyl-6-methoxy-2-oxo-2,3,4,5-tetrahydro-1H-benzo[b]azepin-3-yl}-2-methoxy-acetamide] | – |
| – | – | 1000 to 10000 nM | 100 to 1000 nM | CNC(=O)c1cccc(F)c1Nc1nc(Nc2ccc3c(c2)NC(=O)C(NCCOC)CC3)ncc1Cl (stereo not shown) [Example 1495, 2-{5-Chloro-2-[3-(2-methoxy-ethylamino)-2-oxo-2,3,4,5-tetrahydro-1H-benzo[b]azepin-8-ylamino]-pyrimidin-4-ylamino}-3-fluoro-N-methyl-benzamide] | – |
| – | – | < 100 nM | 100 to 1000 nM | CCN1CCCOc2cc(Nc3ncc(Cl)c(N[C@@H]4CCCC[C@H]4NS(C)(=O)=O)n3)ccc21 [Example 1693, N-{(1R,2R)-2-[5-Chloro-2-(9-ethyl-6,7,8,9-tetrahydro-5-oxa-9-aza-benzocyclohepten-3-ylamino)-pyrimidin-4-ylamino]-cyclohexyl}-methanesulfonamide] | – |
| – | – | 100 to 1000 nM | 100 to 1000 nM | CNC(=O)c1c(C)cccc1Nc1nc(Nc2ccc3c(c2)CCOC(=O)N3C)ncc1Cl [Example 1755, 2-[5-Chloro-2-(5-methyl-6-oxo-5,6,8,9-tetrahydro-7-oxa-5-aza-benzocyclohepten-2-ylamino)-pyrimidin-4-ylamino]-6,N-dimethyl-benzamide] | – |
| – | – | < 100 nM | > 10000 nM | COc1cc2c(cc1Nc1ncc(Cl)c(Nc3ccc(N4CCOCC4)cc3OC)n1)CCN(CC(=O)N1CCOCC1)CC2 [Example 1526, 2-{7-[5-Chloro-4-(2-methoxy-4-morpholin-4-yl-phenylamino)-pyrimidin-2-ylamino]-8-methoxy-1,2,4,5-tetrahydro-3-benzazepin-3-yl}-1-morpholin-4-yl-ethanone] | – |
| – | – | 1000 to 10000 nM | 1000 to 10000 nM | CC(=O)NCCOc1cccc(F)c1Nc1nc(Nc2ccc3c(c2)CCOC(=O)N3C)ncc1Cl [Example 1782, N-(2-{2-[5-Chloro-2-(5-methyl-6-oxo-5,6,8,9-tetrahydro-7-oxa-5-aza-benzocyclohepten-2-ylamino)-pyrimidin-4-ylamino]-3-fluoro-phenoxy}-ethyl)-acetamide] | – |
| – | – | 100 to 1000 nM | 100 to 1000 nM | C#CCNC(=O)c1cccc(F)c1Nc1nc(Nc2ccc3c(c2)NCCCC3(C)C)ncc1Cl [Example 1612, 2-[5-Chloro-2-(5,5-dimethyl-2,3,4,5-tetrahydro-1H-benzo[b]azepin-8-ylamino)-pyrimidin-4-ylamino]-3-fluoro-N-prop-2-ynyl-benzamide] | – |
| < 100 nM | < 100 nM | – | – | CCNC(=O)c1cccc(F)c1Nc1nc(Nc2ccc3c(c2)C(C)(C)CCC(=O)N3)ncc1Cl [Example 1365, 2-[5-Chloro-2-(5,5-dimethyl-2-oxo-2,3,4,5-tetrahydro-1H-benzo[b]azepin-7-ylamino)-pyrimidin-4-ylamino]-N-ethyl-3-fluoro-benzamide] | – |
| – | – | < 100 nM | < 100 nM | CN(C)CCN1CCCC(C)(C)c2ccc(Nc3ncc(Cl)c(N[C@H]4[C@@H](C(N)=O)[C@@H]5C=C[C@H]4C5)n3)cc21 [Example 1640, (1S,2S,3R,4R)-3-{5-Chloro-2-[1-(2-dimethylamino-ethyl)-5,5-dimethyl-2,3,4,5-tetrahydro-1H-benzo[b]azepin-8-ylamino]-pyrimidin-4-ylamino}-bicyclo[2.2.1]hept-5-ene-2-carboxylic acid amide] | – |

Continued, molecule first:

| Structure (SMILES) | IC50 [1, 5] | IC50 [2, 6] | IC50 [1, 7] | IC50 [2, 8] | other results |
| --- | --- | --- | --- | --- | --- |
| COC(=O)CN1CCN(C)c2cc(Nc3ncc(Cl)c(Nc4ccccc4NS(C)(=O)=O)n3)ccc2C1 [Example 472, {8-[5-Chloro-4-(2-methanesulfonylamino-phenylamino)-pyrimidin-2-ylamino]-1-methyl-1,2,3,5-tetrahydro-benzo[e][1,4]diazepin-4-yl}-acetic acid methyl ester] | – | – | – | – | IC50 [1, 3]: < 100 nM; IC50 [2, 4]: 100 to 1000 nM |
| COCCN1CCc2ccc(Nc3ncc(Cl)c(Nc4c(F)cccc4OC4CCOCC4)n3)cc2CC1 [Example 1282, 5-Chloro-N(4)-[2-fluoro-6-(tetrahydro-pyran-4-yloxy)-phenyl]-N(2)-[3-(2-methoxy-ethyl)-2,3,4,5-tetrahydro-1H-3-benzazepin-7-yl]-pyrimidine-2,4-diamine] | < 100 nM | 1000 to 10000 nM | – | – | – |
| CNC(=O)c1ccccc1Nc1nc(Nc2ccc3c(c2)CNC(=O)CCN3C(C)=O)ncc1Cl [Example 1305, 2-[2-(1-Acetyl-4-oxo-1,2,3,4,5,6-hexahydro-benzo[b][1,5]diazocin-8-ylamino)-5-chloro-pyrimidin-4-ylamino]-N-methyl-benzamide] | < 100 nM | < 100 nM | – | – | – |
| COc1cc2c(cc1Nc1ncc(Cl)c(Nc3ccccc3S(=O)(=O)N(C)C)n1)CCNC(=O)C2 [Example 1194, 2-[5-Chloro-2-(8-methoxy-2-oxo-2,3,4,5-tetrahydro-1H-benzo[d]azepin-7-ylamino)-pyrimidin-4-ylamino]-N,N-dimethyl-benzenesulfonamide] | < 100 nM | 1000 to 10000 nM | – | – | – |
| COc1cc2c(cc1Nc1ncc(Cl)c(Nc3ccc(N4CCC(N5CCN(C)CC5)CC4)cc3OC)n1)CCN(CC(=O)N(C)C)CC2 [Example 819, 2-[7-(5-Chloro-4-{2-methoxy-4-[4-(4-methyl-piperazin-1-yl)-piperidin-1-yl]-phenylamino}-pyrimidin-2-ylamino)-8-methoxy-1,2,4,5-tetrahydro-benzo[d]azepin-3-yl]-N,N-dimethyl-acetamide] | – | – | – | – | IC50 [1, 9]: < 100 nM; IC50 [2, 10]: > 10000 nM |
| COCCN1CCc2ccc(Nc3ncc(Cl)c(Nc4ccccc4S(C)(=O)=O)n3)cc2CC1 [Example 1249, 5-Chloro-N(4)-(2-methanesulfonyl-phenyl)-N(2)-[3-(2-methoxy-ethyl)-2,3,4,5-tetrahydro-1H-3-benzazepin-7-yl]-pyrimidine-2,4-diamine] | < 100 nM | 100 to 1000 nM | – | – | – |
| C#CCN1CCc2ccc(Nc3ncc(Cl)c(Nc4ccccc4NS(C)(=O)=O)n3)cc2CC1 [Example 326, N-{2-[5-Chloro-2-(3-prop-2-ynyl-2,3,4,5-tetrahydro-1H-benzo[d]azepin-7-ylamino)-pyrimidin-4-ylamino]-phenyl}-methanesulfonamide] | – | – | – | – | IC50 [1, 3]: < 100 nM; IC50 [2, 4]: 100 to 1000 nM |
| COc1cc2c(cc1Nc1ncc(Cl)c(Nc3ccccc3S(=O)(=O)N(C)C)n1)CCN(CCS(C)(=O)=O)CC2 [Example 1152, 2-{5-Chloro-2-[3-(2-methanesulfonyl-ethyl)-8-methoxy-2,3,4,5-tetrahydro-1H-benzo[d]azepin-7-ylamino]-pyrimidin-4-ylamino}-N,N-dimethyl-benzenesulfonamide] | < 100 nM | 1000 to 10000 nM | – | – | – |
| CS(=O)(=O)N[C@@H]1CCCC[C@H]1Nc1nc(Nc2ccc3c(c2)CCC(NCC(F)(F)F)CC3)ncc1Cl (stereo partly drawn) [Example 656, N-((1R,2R)-2-{5-Chloro-2-[7-(2,2,2-trifluoro-ethylamino)-6,7,8,9-tetrahydro-5H-benzocyclohepten-2-ylamino]-pyrimidin-4-ylamino}-cyclohexyl)-methanesulfonamide] | – | – | – | – | IC50 [1, 9]: < 100 nM; IC50 [2, 10]: 100 to 1000 nM |
| CCN1C2CCC1c1cc(Nc3ncc(Cl)c(Nc4ccccc4NS(C)(=O)=O)n3)ccc1C2 (stereo not shown) [Example 72, N-{2-[5-Chloro-2-(12-ethyl-12-aza-tricyclo[7.2.1.0*2,7*]dodeca-2(7),3,5-trien-4-ylamino)-pyrimidin-4-ylamino]-phenyl}-methanesulfonamide] | – | – | – | – | IC50 [1, 3]: < 100 nM; IC50 [2, 4]: 100 to 1000 nM |
| COc1cc2c(cc1Nc1ncc(Cl)c(N[C@H]3[C@@H](C(N)=O)[C@@H]4C=C[C@H]3C4)n1)CCN(CCS(C)(=O)=O)CC2 [Example 1128, (1S,2S,3R,4R)-3-{5-Chloro-2-[3-(2-methanesulfonyl-ethyl)-8-methoxy-2,3,4,5-tetrahydro-1H-benzo[d]azepin-7-ylamino]-pyrimidin-4-ylamino}-bicyclo[2.2.1]hept-5-ene-2-carboxylic acid amide] | < 100 nM | > 10000 nM | – | – | – |
| CN1CCNCc2cc(Nc3ncc(Cl)c(N[C@@H]4CCCC[C@H]4NS(C)(=O)=O)n3)ccc21 [Example 422, N-{(1R,2R)-2-[5-Chloro-2-(1-methyl-2,3,4,5-tetrahydro-1H-benzo[e][1,4]diazepin-7-ylamino)-pyrimidin-4-ylamino]-cyclohexyl}-methanesulfonamide] | – | – | – | – | IC50 [1, 3]: < 100 nM; IC50 [2, 4]: 1000 to 10000 nM |
| CNC(=O)c1ccccc1Nc1nc(Nc2ccc3c(c2)N(C)CCN(C(=O)N(C)C)C3)ncc1Cl [Example 489, 8-[5-Chloro-4-(2-methylcarbamoyl-phenylamino)-pyrimidin-2-ylamino]-1-methyl-1,2,3,5-tetrahydro-benzo[e][1,4]diazepine-4-carboxylic acid dimethylamide] | – | – | – | – | IC50 [1, 3]: < 100 nM; IC50 [2, 4]: < 100 nM |
